Reference: patent US7608750B2, “Nonhuman model animal unresponsive to immunopotentiating synthetic compound” (Japan Science and Technology Agency, priority 2001, dated 2009)

Tests used:
[1] = system: peritoneal macrophages from MyD88 knockout mice; assay: Cytokine production by peritoneal macrophages (ELISA), MyD88 knockout; format: cell-based, mouse; settings: 5×10^4 cells, presence or absence of 30 U/ml IFN-γ
Description: (§1) 2 ml of 4% thioglycollic acid medium (DIFCO) were injected into the intraperitoneals of the wild-type mice, TLR7 knockout mice (TLR7KO), MyD88 knockout mice (MyD88KO) and TLR9 knockout mice (TLR9KO), respectively, three days later, peritoneal exudate cells were isolated from intraperitoneal of each mouse, these cells were cultured in PRMI 1640 medium (GIBCO) added with 10% fatal bovine serum (GIBCO) at 37° C. for two hours, nonadherent cells were […] by washing with Hank's buffered salt solution (HBBS; GIBCO) at iced temperature, and the adherent cells were used as peritoneal macrophages in following experiment. Total RNA (10 μg) obtained from macrophages derived from the wild-type mice (+/Y) and TLR7 knockout mouse (TLR7KO) was electrophoresed, transferred onto a nylon membrane, and hybridized with a part of TLR7 DNA, and this membrane was rehybridized with β-actin probe. It was examined by the Northern blotting. From the results shown in FIG. 3, the expression of TLR7mRNA could not be found in TLR7 knockout mice.
(§2) In addition, the measurement of cytokine generated from peritoneal macrophages was executed as follows; […] peritoneal macrophages of 2×10^5 well or 5×10^4 well were cultured in 96-well plate respectively, and after stimulated with the above-mentioned reagents for 24 h, concentration of TNF-α, IL-12p40, IL-6 and/or IFN-α were measured by ELISA according to the manual.
(§3) Before examining the reactivity of TLR7 knockout mice to imiquimod and R-848 which are imidazoquinoline group compound, firstly imiquimod or R-848 were administered to BALB/c mice (wild-type) orally at the predetermined concentration, respectively, the concentration of IFN-α, TNF-α and IL-12 in serum were measured after two hours. […] The data is shown as a mean value+/−S.D. (N=3). Similarly, the ability of these compounds to activate immune cells via TLR was examined using imiquimod or R-848 respectively. The peritoneal macrophages (5×10^4 cells) from wild-type mice and MyD88 knockout mice prepared in example 2, were stimulated by imiquimod or R-848, in the presence or absence of 30 U/ml of IFN-γ, and the concentration of TNF-α and IL-12 produced by peritoneal macrophages were measured by ELISA. […] The data is shown as a mean value+/−S.D. (N=3).

[2] = system: BMDC derived from wild-type mice; assay: Surface CD40, CD80, CD86 expression on bone marrow dendritic cells (flow cytometry), wild-type; format: cell-based, mouse; settings: stimulated 24 h
Description: (§4) The reactivity to R-848 in dendritic cells derived from bone marrow (BMDC) derived from TLR7 knockout mice (TLR7KO) and the wild-type mice was examined. The bone marrow cells obtained from TLR7 knockout mice and wild-type mice were cultured for six days in RPMI-1640 medium supplemented with 10% fatal bovine serum and 10 ng/ml of GM-CSF (mouse granulocyte/macrophage colony stimulating factor). The obtained mouse undifferentiated dendritic cells were stimulated with R-848 or CpGDNA for 24 h, the cells were stained with biotinylated antibody to CD40, CD80 and CD86, and phycoerythrin (PE)-associated streptavidin was detected, which was analyzed by automated-cell analysing system (FACSCalibur). The results of examination of the expression of the molecules of CD40, CD80 and CD86 onto the surface of cells by flow cytometry are shown in FIG. 11. Similar to the case with CpGDNA, when BMDC derived from wild-type mice was stimulated with R-848, upregulation of CD40, CD80 and CD86 expression was induced. On the contrary, when BMDC derived from TLR7 knockout mice (TLR7KO) was stimulated with R-848, the expression of these molecules on cell surface was not enhanced.

[3] = system: wild-type mice; assay: Serum cytokines after intraperitoneal R-848, wild-type mice; format: in vivo, mouse; settings: 50 nmol intraperitoneally, ELISA
Description: (§5) It was examined in vivo whether TLR7 was involved in a response to R-848. The wild-type mice, MyD88 knockout mice or TLR7 knockout mice were injected intraperitoneally with 50 nmol of R-848, the sera were harvested after a predetermined period of time, and the concentration of IFN-α, TNF-α and IL12p40 in sera was determined by ELISA. […] On the contrary, the increment of these cytokines was not observed in TLR7 knockout mice.

[4] = system: peritoneal macrophages from wild-type mice; assay: Cytokine production by peritoneal macrophages (ELISA), wild-type; format: cell-based, mouse; settings: 5×10^4 cells, presence or absence of 30 U/ml IFN-γ
Description: as §1, §2, §3

[5] = target: T1, TLR7 (Homo sapiens, UniProt Q9NYK1); assay: NF-κB reporter gene (luciferase) in HEK293 cells transfected with TLR7 expression plasmids; format: cell-based; settings: HEK293 cells transiently cotransfected with human TLR7 expression plasmids, before and after R-848 stimulation
T1 construct: expressed in transfected cells; host or cells: HEK293
T1 sequence (Q9NYK1 27-1049): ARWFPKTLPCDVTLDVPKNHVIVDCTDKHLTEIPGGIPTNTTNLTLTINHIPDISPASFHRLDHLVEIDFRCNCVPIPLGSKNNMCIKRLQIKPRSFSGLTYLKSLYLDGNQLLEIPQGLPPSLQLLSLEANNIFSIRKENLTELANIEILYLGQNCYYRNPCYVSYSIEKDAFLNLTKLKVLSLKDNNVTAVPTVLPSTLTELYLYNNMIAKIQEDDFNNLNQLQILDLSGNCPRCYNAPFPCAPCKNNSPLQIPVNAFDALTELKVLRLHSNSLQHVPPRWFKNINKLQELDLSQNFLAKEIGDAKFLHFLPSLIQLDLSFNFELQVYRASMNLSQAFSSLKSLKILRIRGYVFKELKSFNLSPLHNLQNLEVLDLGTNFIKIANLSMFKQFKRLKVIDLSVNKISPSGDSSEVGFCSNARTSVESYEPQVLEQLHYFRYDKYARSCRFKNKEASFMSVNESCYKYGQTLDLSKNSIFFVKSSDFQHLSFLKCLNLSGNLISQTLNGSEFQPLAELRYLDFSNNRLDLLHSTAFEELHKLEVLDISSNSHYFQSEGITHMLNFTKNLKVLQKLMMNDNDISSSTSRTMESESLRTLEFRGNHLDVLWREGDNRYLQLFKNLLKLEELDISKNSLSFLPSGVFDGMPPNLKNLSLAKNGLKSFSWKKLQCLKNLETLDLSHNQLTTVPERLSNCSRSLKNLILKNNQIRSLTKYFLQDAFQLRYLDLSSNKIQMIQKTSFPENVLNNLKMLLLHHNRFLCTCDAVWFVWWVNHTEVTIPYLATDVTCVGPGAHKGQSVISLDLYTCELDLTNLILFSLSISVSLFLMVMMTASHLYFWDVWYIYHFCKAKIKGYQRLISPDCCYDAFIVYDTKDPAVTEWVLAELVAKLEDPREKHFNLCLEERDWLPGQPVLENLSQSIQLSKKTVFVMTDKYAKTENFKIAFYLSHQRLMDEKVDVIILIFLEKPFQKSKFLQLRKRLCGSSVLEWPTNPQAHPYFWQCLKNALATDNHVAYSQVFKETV
Description: (§6) The functional role of TLR7 in transactivation of NF-κB reporter gene induced by R-848 was examined. HEK293 cells were transiently cotransfected with TLR7 expression plasmids derived from human, and luciferase activity was measured before and after R-848 stimulation. The peritoneal macrophages derived from TLR7 knockout mice (TLR7KO) and wild-type mice stimulated with thioglycollic acid were stimulated with 100 nm of R-848 or 1.0 μM of phosphothioate modified CpGDNA 1668 (CpG), all cell lysate were prepared, immunoprecipated with anti-JNK antibody, and JNK activity was examined by In Vitro Kinase Assay using GST-c-Jun fusion protein as a substrate. The same lysate was blotted with anti-JNK antibody. Moreover, the lysate was immunoprecipated with anti-IRAK, and kinase activity of IRAK was examined by In Vitro Kinase Assay. The same lysate was blotted with anti-IRAK antibody. […] It is important to activate TLR7-MyD88-dependent signal pathway for the effect of imidazoquinoline in vivo.

[6] = system: macrophages derived from wild-type mice; assay: Intracellular signalling (NF-κB EMSA, JNK and IRAK in vitro kinase assay) in macrophages, wild-type; format: cell-based, mouse; settings: 100 nM R-848 or 1.0 μM CpGDNA 1668
Description: (§7) Next, the activation of intracellular signaling cascade to an antiviral immune-modulator was examined. Peritoneal macrophages (2×10^6 cells) from TLR7 knockout mice (TLR7KO) and wild-type mice respectively stimulated with thioglycollic acid, were stimulated with 100 nM of R-848 or 1.0 μM of CpGDNA 1668 (CpG) for a certain period of time, nucleoprotein was extracted, the extract obtained with the specific probe including NF-κB associated-site was incubated, electrophoresed, visualized by autoradiography, and NF-κB activation was examined as DNA-associated protein by electrophoretic mobility shift assay (EMSA). In FIG. 12, an arrow indicates induced NF-κB complexes, and an arrow head indicates a free probe.
as §6

[7] = system: peritoneal macrophages derived from TLR7 knockout mice (TLR7KO); assay: Cytokine production by peritoneal macrophages (ELISA), TLR7 knockout; format: cell-based, mouse; settings: 5×10^4 cells, presence or absence of 30 U/ml IFN-γ, 24 h culture
Description: as §1, §2
Next, the peritoneal macrophages (5×10^4 cells) derived from TLR7 knockout mice (TLR7KO), TLR9 knockout mice (TLR9KO) and wild-type mice were stimulated with CpGDNA 1668 (phosphorothioate 1688). D19, AAC30, natural 1688 (phosphodiester 1688). genomic DNA derived from Escherichia coli, or genomic DNA derived from Micrococcus deikticus at of a predetermined concentration in the presence (+) or absence (−) of 30 U/ml of IPN-γ, and the concentration of IL-12p40 produced by production of peritoneal macrophages contained in cultured supernatant was measured by ELISA after 24 h of culture. The results are shown in FIG. 6 (in the figure, marks of * show detection limits and below). […]

[8] = system: TLR7 knockout mice; assay: Serum cytokines after intraperitoneal R-848, TLR7 knockout mice; format: in vivo, mouse; settings: 50 nmol intraperitoneally, ELISA
Description: as §5

[9] = system: splenic cells derived from wild-type mice; assay: Splenic cell proliferation ([3H] thymidine incorporation), wild-type; format: cell-based, mouse; settings: 5×10^4 cells, cultured 48 h
Description: (§8) As activated phenotypes were proliferated and expressed by stimulating B-lymphocytes with imidazoquinoline group compounds, the proliferation of splenic cells was examined (Cell. Immunol. 203, 55-62, 2000; J. Immunol. 165, 5552-5557, 2000). Splenic cells (5×10^4 cells) derived from TLR7 knockout mice (TLR7KO) and wild-type mice were stimulated with R-848 and CpGDNA at a predetermined concentration, cultured for 48 h (cultured by adding [^3H] thymidine for last eight hours), and measured the level of thymidine incorporation using a β scintillation counter. A mean value+/−S.D., obtained from representative experiment among triplicate experiments is shown.

[10] = system: macrophages derived from TLR7 knockout mice; assay: Intracellular signalling (NF-κB EMSA, JNK and IRAK in vitro kinase assay) in macrophages, TLR7 knockout; format: cell-based, mouse; settings: TLR7KO macrophages, 100 nM R-848
Description: as §7, §6

[11] = system: BMDC derived from TLR7 knockout mice (TLR7KO); assay: Surface CD40, CD80, CD86 expression on bone marrow dendritic cells (flow cytometry), TLR7 knockout; format: cell-based, mouse; settings: stimulated 24 h
Description: as §4

[12] = system: BALB/c mice (wild-type); assay: Serum cytokines after oral administration of imidazoquinolines; format: in vivo, mouse; settings: after two hours, N=3
Description: as §3

[13] = system: genital herpes; settings: actual treatment; cited from earlier work
[14] = system: MyD88 knockout mice; assay: Serum cytokines after intraperitoneal R-848, MyD88 knockout mice; format: in vivo, mouse; settings: 50 nmol intraperitoneally, ELISA
Description: as §5

[15] = system: splenic cells derived from TLR7 knockout mice (TLR7KO); assay: Splenic cell proliferation ([3H] thymidine incorporation), TLR7 knockout; format: cell-based, mouse; settings: 5×10^4 cells, cultured 48 h
Description: as §8

[16] = system: various types of cells; settings: cited from earlier work
[17] = system: type 2 herpes simplex virus; settings: cited from earlier work
[18] = system: NF-κB and MAP kinase; settings: cited from earlier work
[19] = system: human papilloma virus; settings: actual treatment; cited from earlier work
[20] = system: animal model; settings: cited from earlier work
[21] = system: cytomegalovirus; settings: cited from earlier work

CCOCc1nc2c(N)nc3ccccc3c2n1CC(C)(C)O [R-848, resiquimod]
IL-12 produced by peritoneal macrophages [1]: hardly produced any cytokines
TNF-α produced by peritoneal macrophages [1]: hardly produced any cytokines
CD40 expression on cell surface [2]: upregulation
CD80 expression on cell surface [2]: upregulation
CD86 expression on cell surface [2]: upregulation
concentration of IFN-α in sera [3]: increased significantly
concentration of IL12p40 in sera [3]: increased significantly
concentration of TNF-α in sera [3]: increased significantly
IL-12 produced by peritoneal macrophages [4]: in large amount
TNF-α produced by peritoneal macrophages [4]: in large amount
NF-κB-dependent promoter (luciferase activity) [5]: promoted
activation of c-Jun N terminal kinase (JNK) [6]: induced
enhanced DNA avidity of NF-κB transcription (EMSA) [6]: induced
phosphorylation of IRAK [6]: induced
production of IL-6 by peritoneal macrophages [7]: not confirmed
production of IL-12p40 by peritoneal macrophages [7]: not confirmed
production of TNF-α by peritoneal macrophages [7]: not confirmed
increment of IFN-α in sera [8]: not observed
increment of IL12p40 in sera [8]: not observed
increment of TNF-α in sera [8]: not observed
proliferation of splenic cells ([3H] thymidine incorporation) [9]: showed proliferation depending on concentration
activation of c-Jun N terminal kinase (JNK) [10]: completely destructed
enhanced DNA avidity of NF-κB transcription (EMSA) [10]: completely destructed
phosphorylation of IRAK [10]: completely destructed
CD40 expression on cell surface [11]: not enhanced
CD80 expression on cell surface [11]: not enhanced
CD86 expression on cell surface [11]: not enhanced
concentration of IFN-α in serum [12]: increased depending on applied dose
concentration of IL-12 in serum [12]: increased depending on applied dose
concentration of TNF-α in serum [12]: increased depending on applied dose
treating genital herpes [13]: effective
concentration of IFN-α in sera [14]: did not show any reactivity
concentration of IL12p40 in sera [14]: did not show any reactivity
concentration of TNF-α in sera [14]: did not show any reactivity
proliferation of splenic cells ([3H] thymidine incorporation) [15]: did not show proliferation

CC(C)Cn1cnc2c(N)nc3ccccc3c21 [imiquimod]
induction of cytokines such as IFN-α, IL-6 and IL-12 [16]: inducing cytokines such as IFN-α, IL-6 and IL-12
IL-12 produced by peritoneal macrophages [1]: hardly produced any cytokines
TNF-α produced by peritoneal macrophages [1]: hardly produced any cytokines
IL-12 produced by peritoneal macrophages [4]: in large amount
TNF-α produced by peritoneal macrophages [4]: in large amount
replication of type 2 herpes simplex virus [17]: inhibit the replication
stimulation of NF-κB and MAP kinase [18]: stimulates
treating pudendal wart (condyloma acuminatum) caused by human papilloma virus [19]: effective
antitumor activity [20]: antitumor activity
antivirus activity [20]: shows antivirus activity
concentration of IFN-α in serum [12]: increased depending on applied dose
concentration of IL-12 in serum [12]: increased depending on applied dose
concentration of TNF-α in serum [12]: increased depending on applied dose
replication of cytomegalovirus [21]: inhibit the replication
